Results reported in ChEMBL document CHEMBL4732144, “Discovery of a true bivalent dopamine D receptor agonist” (Eur J Med Chem, 2021).
pEC50, pKi: −log10 of the molar value. The source made the active and inactive calls. The rule behind the calls is not given here.

Columns and labels:
[1] = target: T1, D(2) dopamine receptor (Homo sapiens, UniProt P14416); experiment: Displacement of [3H]raclopride from human D2R isoform 2 stably expressed in HEK293 cell membranes at 1 uM measured after 1 hr by liquid scintillation counting method; settings: Membrane, filed as agonist
[2] = target: T1, D(2) dopamine receptor; experiment: Displacement of [3H]raclopride from human D2R isoform 2 stably expressed in HEK293 cell membranes measured after 1 hr by liquid scintillation counting method; parameters: species or system Membrane
[3] = target: T1, D(2) dopamine receptor; experiment: Displacement of [3H]raclopride from human D2R isoform 2 stably expressed in HEK293 cell membranes measured after 1 hr by liquid scintillation counting method relative to IndBipAlk Ki; settings: Membrane
[4] = target: T1, D(2) dopamine receptor; experiment: Agonist activity at human D2R isoform 2 stably expressed in HEK293 cells assessed as inhibition of forskolin-induced increase of cAMP accumulation preincubated for 10 mins followed by forskolin addition by Glosensor cAMP reagent based luminescence assay; format: functional, cell-based
[5] = target: T1, D(2) dopamine receptor; experiment: Agonist activity at human D2R isoform 2 stably expressed in HEK293 cells assessed as inhibition of forskolin-induced increase of cAMP accumulation preincubated for 10 mins followed by forskolin addition by Glosensor cAMP reagent based luminescence assay relative to IndBipAlk EC50; format: functional, cell-based
[6] = target: T1, D(2) dopamine receptor; experiment: Displacement of [3H]raclopride from human D2R isoform 2 stably expressed in HEK293 cell membranes measured after 1 hr by liquid scintillation counting method relative to IndAlk Ki; settings: Membrane
[7] = target: T1, D(2) dopamine receptor; experiment: Agonist activity at human D2R isoform 2 stably expressed in HEK293 cells assessed as inhibition of forskolin-induced increase of cAMP accumulation preincubated for 10 mins followed by forskolin addition by Glosensor cAMP reagent based luminescence assay relative to IndAlk EC50; format: functional, cell-based

T1 sequence (P14416 whole entry, canonical isoform): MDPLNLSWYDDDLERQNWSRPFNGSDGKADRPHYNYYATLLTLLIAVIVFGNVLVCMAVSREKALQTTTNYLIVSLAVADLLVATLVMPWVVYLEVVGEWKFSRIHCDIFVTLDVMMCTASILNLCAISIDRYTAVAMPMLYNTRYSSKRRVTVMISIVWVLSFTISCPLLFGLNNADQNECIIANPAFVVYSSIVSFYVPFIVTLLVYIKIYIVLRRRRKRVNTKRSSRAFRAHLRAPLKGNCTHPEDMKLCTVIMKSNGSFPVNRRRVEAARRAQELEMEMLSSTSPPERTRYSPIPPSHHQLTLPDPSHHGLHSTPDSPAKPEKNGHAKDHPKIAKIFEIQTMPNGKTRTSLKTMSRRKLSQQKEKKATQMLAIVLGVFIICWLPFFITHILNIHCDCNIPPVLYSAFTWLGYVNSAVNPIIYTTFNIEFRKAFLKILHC

SMILES | inhibition [1] | pKi [2] | Ratio Ki [3] | pEC50 [4] | Ratio EC50 [5] | Ratio Ki [6] | Ratio EC50 [7]
CCCN(CCCCc1cn(CCOCCOCCOCCOCCn2cc(CCCCN(CCC)C3Cc4ccccc4C3)nn2)nn1)C1Cc2ccccc2C1 | Active | 7.18 |  | 8.03 |  | 2.9 | 0.4
C#CCCCCN(CCC)C1Cc2ccccc2C1 |  | 6.72 |  | 8.47 |  |  | 
CCCN(CCCCc1cn(CCOCCOCCOCCn2cc(CCCCN(CCC)C3Cc4ccccc4C3)nn2)nn1)C1Cc2ccccc2C1 | Active | 7.14 |  | 8.14 |  | 2.6 | 0.5
CCCN(CCCCNC(=O)c1ccc(-c2ccc(OCc3cn(CCOCCOCCOCCn4cc(COc5ccc(-c6ccc(C(=O)NCCCCN(CCC)C7Cc8ccccc8C7)cc6)cc5)nn4)nn3)cc2)cc1)C1Cc2ccccc2C1 | Active | 6.57 | 3.6 | 6.53 | 1.1 |  | 
CCCN(CCCCNC(=O)c1ccc(-c2ccc(OCc3cn(CCOCCOCCOCCOCCOCCn4cc(COc5ccc(-c6ccc(C(=O)NCCCCN(CCC)C7Cc8ccccc8C7)cc6)cc5)nn4)nn3)cc2)cc1)C1Cc2ccccc2C1 | > 80% | 7.23 | 16.4 | 7.19 | 4.9 |  | 

More lines, now with the values ahead:

inhibition [1] | pKi [2] | Ratio Ki [3] | pEC50 [4] | Ratio EC50 [5] | Ratio Ki [6] | Ratio EC50 [7] | SMILES
Active | 6.60 | 3.9 | 6.27 | 0.6 |  |  | CCCN(CCCCNC(=O)c1ccc(-c2ccc(OCc3cn(CCOCCOCCOCCOCCn4cc(COc5ccc(-c6ccc(C(=O)NCCCCN(CCC)C7Cc8ccccc8C7)cc6)cc5)nn4)nn3)cc2)cc1)C1Cc2ccccc2C1
Active | 7.32 |  | 8.49 |  | 3.9 | 1.1 | CCCN(CCCCc1cn(CCOCCOCCOCCOCCOCCn2cc(CCCCN(CCC)C3Cc4ccccc4C3)nn2)nn1)C1Cc2ccccc2C1
 | 6.01 |  | 6.49 |  |  |  | C#CCOc1ccc(-c2ccc(C(=O)NCCCCN(CCC)C3Cc4ccccc4C3)cc2)cc1
